The test system of this test is MDA-MB-468 breast. As to the kind of experiment: inhibition of tumour cell growth, NCI panel, 48 h.

Consider 31 molecules from PubChem BioAssay (NCI).

Molecules are shown by their SMILES.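 Tested at 5 concentrations; 48 h exposure; 96-well plates; endpoints linearly interpolated, else capped at highest concentration. GI50: concentration for 50% inhibition of growth. TGI is the concentration that stops growth completely.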

For the molecule `COc1cc(/C=C/C(=O)c2ccc(Nc3ncnc4ccccc34)cc2)cc(OC)c1`, the GI50 is 2200 nM and the TGI is 10700 nM.

`CCCc1cc2cc(-n3nc(C)c4c3CC(C)(C)CC4=O)cc(NC3CCC(O)CC3)c2c(=O)[nH]1` (configuration not stated): the GI50 was 47.5 nM and the TGI was greater than 100000 nM.

`O=C1c2cc3c(cc2-c2c1c1ccc(Cl)cc1c(=O)n2C[C@H](O)[C@@H](O)[C@H](O)CO)OCO3`: the GI50 is 18.9 nM and the TGI came to 45.9 nM.

Consider `C/C(CC(=O)NNc1ccc([N+](=O)[O-])cc1)=N\Nc1ccc([N+](=O)[O-])cc1`, for which the GI50 is 28100 nM and the TGI was greater than 100000 nM.

In the case of `COc1ccc(-c2nn(-c3cccc(NC(=O)Nc4ccc(Cl)c(C(F)(F)F)c4)c3)cc2-c2ccncc2)cc1Cl`, the GI50 was 1630 nM and the TGI is 6780 nM.

Regarding `O=C(O)C(CSC(c1ccccc1)(c1ccccc1)c1ccccc1)N=Cc1cccs1` (configuration not stated), the GI50 was 232 nM and the TGI worked out at 922 nM.

For the molecule `c1cc(OCCN2CCCCCC2)ccc1CNc1ccc2nc(CCC3CCCCC3)[nH]c2c1`, the GI50 is 1550 nM and the TGI was determined as 4020 nM.

In the case of `O=C1/C(=C\C(Cl)=C/c2ccc([N+](=O)[O-])cc2)SC(=S)N1CCc1ccc(O)cc1`, the GI50 is 405 nM and the TGI worked out at 1740 nM.

As to `CN1CCC[C@@H]1CCO[C@](C)(c1ccccc1)c1ccc(Cl)cc1`, the GI50 is 1660 nM and the TGI is 3510 nM.

For the molecule `N#CC(=S)Nc1ccc(Cl)c(Cl)c1`, the GI50 was 6100 nM and the TGI amounted to 52200 nM.

`COc1ccc(N(CC(=O)NCCC[Te]c2ccccc2)C(=O)CCSC2=C(C)C(=O)c3ccccc3C2=O)cc1`: the GI50 was 1670 nM and the TGI was determined as 3390 nM.

Regarding `Cc1cccc2c(N=Nc3ccc(S(N)(=O)=O)cc3)c(O)[nH]c12`, the GI50 is greater than 25000 nM and the TGI was greater than 25000 nM.

Consider `Cc1c2c(nn1C(=O)c1nn(-c3ccc(Cl)cc3)cc1O)-c1ccccc1CC2`, for which the GI50 was 250 nM and the TGI is greater than 58200 nM.

In the case of `COc1ccc(-c2cnc3ccnn3c2-c2cc(OC)c(OC)c(OC)c2)cc1`, the GI50 was 2640 nM and the TGI was greater than 100000 nM.

Turning to `O=C1OCc2c1cc(F)cc2[N+](=O)[O-]`, the GI50 was greater than 100000 nM and the TGI is greater than 100000 nM.

As for `O=C(O)c1ccc2c(c1Nc1ccccc1)C(=O)c1ccccc1C2=O`, the GI50 is 31800 nM and the TGI was greater than 100000 nM.

Regarding `COc1cc(/C=C2\CN(C)C/C(=C\c3cc(OC)c(OC)c(OC)c3)C2=O)cc(OC)c1OC`, the GI50 is 266 nM and the TGI was 849 nM.

With `O=C(Nc1n[nH]c2nc(-c3ccco3)ccc12)C1CC1`, the GI50 was greater than 25000 nM and the TGI is greater than 25000 nM.

For `O=C(Nc1ccccc1)Nc1cccc(-n2cc(-c3ccncc3)c(-c3ccc(O)c(Cl)c3)n2)c1`, the GI50 was 3220 nM and the TGI came to 12200 nM.

`CCN(CC)c1ccc2c(c1)Oc1nc(N)c(C#N)c(N)c1C2Sc1ccc(C)cc1` (configuration not stated): the GI50 was 1620 nM and the TGI worked out at 3140 nM.

Take `CCOC(=O)/C(=C/c1ccc([N+](=O)[O-])cc1)C(=O)c1ccccc1`: the GI50 is 2310 nM and the TGI was found to be 4600 nM.

Turning to `COc1ccc(/C=C2\CN(Cc3cn(CCCNc4ccnc5cc(Cl)ccc45)nn3)C/C(=C\c3ccc(OC)c(OC)c3)C2=O)cc1OC`, the GI50 is 772 nM and the TGI came out at 2490 nM.

As to `CCN(CC)CCOc1ccc(/C(=C(\C)Cc2ccc(OC)cc2)c2ccc(OC(=O)NCc3ccccc3)cc2)cc1`, the GI50 was 1900 nM and the TGI worked out at 3960 nM.

With `O=C1C(=O)c2ccccc2-c2ccccc21`, the GI50 is 1700 nM and the TGI was found to be 3530 nM.

For the molecule `C=C1C(=O)O[C@H]2[C@H]1CC/C(COC(=O)CCCCCCCCC(=O)OC/C1=C/CC[C@@]3(C)O[C@H]3[C@H]3OC(=O)C(=C)[C@@H]3CC1)=C\CC[C@@]1(C)O[C@@H]21`, the GI50 was 2270 nM and the TGI was determined as 5150 nM.

For `C=C1C(=O)O[C@H]2[C@H]1CC/C(Cn1cc(Cn3ccc4ccccc43)nn1)=C\CC[C@@]1(C)O[C@@H]21`, the GI50 was 717 nM and the TGI was 2480 nM.

For `CN[C@]12CC3(C=CC(=O)C=C3)O[C@@]1(Cc1ccc(OC)cc1)N(C)C(=O)N2`, the GI50 is 1250 nM and the TGI turned out to be 3500 nM.

On to `CN(C)CCCN(c1nc(C(Cl)(Cl)Cl)ns1)c1nc(C(Cl)(Cl)Cl)ns1`, for which the GI50 was 1660 nM and the TGI is 3110 nM.

Take `NC1=C(Cl)C(=O)c2ccc(S(N)(=O)=O)cc2C1=O`: the GI50 is 181 nM and the TGI came out at 486 nM.

For the molecule `CCCCCCCC/C=C/CCCCCCCC1=NC(C)(C)CN1C(C)C`, the GI50 was 1310 nM and the TGI was determined as 2700 nM.

`COc1ccc(/C(C)=C(\c2ccc(Cl)cc2)c2ccc(OCCN3CCCC3)cc2)cc1F`: the GI50 is 3350 nM and the TGI was 7180 nM.
